Laboratory results reported in patent US20100280986A1, “SYSTEMS AND METHODS FOR TAILORING ACUTE AND CHRONIC VIRAL INFECTION […] INCREASE THE P[…] "CURE" FOR A GIVEN SUBJECT” (Roche Palo Alto, priority 2009, published 2010).

System: HCV
Assay: HCV viral kinetic population model (nonlinear mixed effects) fitted to long-term viral load profiles of 2100 CHC patients
Format: in vivo, human (patients)
Source text: In an embodiment, a population model may account for the ribavirin effect, the natural turnover and proliferation of hepatocytes, and the viral eradication.
In this example, liver physiological/patho-physiology characteristics are incorporated into model 400, such as hepatocyte cell maturation (source s), death rate (death d), maximal liver size (Tmax). Model 400 can be parameterization in terms of a reproductive ratio (RR0) rather than cell infectivity (infection β). A “cure” boundary condition can be provided when a number of infected cells is predicted to be <=1.
HCV viral kinetic model 400 is extended with a density dependent proliferation of hepatocytes [r].
Infectious HCV virions (VI) infect target cells (uninfected hepatocytes) [T] creating productively infected cells (I) at a rate β·V1·T. Uninfected hepatocytes are produced at rate s and die at rate d. Infected hepatocytes die at rate δ. Infectious (VI) and non-infectious (VNI) virions are produced at rate p and cleared at rate c. The measured viral load (V) can be expressed in IU/mL, representing the sum of infectious and non-infectious virions V=VI+VN.
Continuing the example, DoseRBV is the daily dose of ribavirin per kg body weight and ED50RRV is the estimated daily dose in mg/kg rendering 40% of the virions non-infectious. […]

In the case of `NC(=O)c1ncn([C@@H]2O[C@H](CO)[C@@H](O)[C@H]2O)n1` [ribavirin], the “ED50RBV (estimated daily dose rendering virions non-infectious)” value (population estimate, daily dose per kg body weight) is reported as 14.4 mg˜kg^−1·day^−1 and the “Fraction of the virions rendered non-infectious” value (standard ribavirin treatment of 1000/1200 mg per day) is reported as 40-60%.
